Data taken from patent US20100298141A1, “SUBSTITUTED PYRIDINE N-OXIDE HERBICIDES” (E. I. DU PONT DE NEMOURS AND COMPANY, priority 2007, published 2010).

Experiments:
catchweed bedstraw = assay: Test C pre-/postemergence test; format: in vivo, Galium aparine
How it was run: (§1)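 Test chemicals were formulated with surfactant in a non-phytotoxic solvent and sprayed both on freshly planted seeds (preemergence) and on 1- to 4-leaf plants of 2–18 cm (postemergence). Flooded-paddy pots received compound directly into 3 cm of standing water, maintained for the test.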

field bindweed = assay: Test F preemergence test; format: in vivo, Convolvulus arvensis; conditions: scale 0 to 100
How it was run: (§2)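 Compound in a non-phytotoxic solvent blend with surfactant is applied preemergence to planted seeds or postemergence to sugarcane plants. Plants and controls stay in the greenhouse 14 to 21 days before visual comparison.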

downy brome = assay: Test C pre-/postemergence test; format: in vivo, Bromus tectorum
How it was run: as §1

common ragweed = assay: Test F preemergence test; format: in vivo, Ambrosia elation; conditions: scale 0 to 100
How it was run: as §2

itchgrass = assay: Test F preemergence test; format: in vivo, Rottboellia cochinchinensis; conditions: scale 0 to 100
How it was run: as §2

large crabgrass = assay: Test F preemergence test; format: in vivo, Digitaria sanguinalis; conditions: scale 0 to 100
How it was run: as §2

Italian ryegrass = assay: Test F preemergence test; format: in vivo, Lolium multiflorum; conditions: scale 0 to 100
How it was run: as §2

crabgrass = assay: Test A pre-/postemergence greenhouse test; format: in vivo, Digitaria sanguinalis; conditions: for Crabgrass, Large plant response rating: 0 to 100 scale
How it was run: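 Untreated controls served as the reference for visual injury ratings taken about ten days after spraying. The non-phytotoxic solvent/surfactant formulation was applied preemergence to seeded loam and sand and postemergence to plants two to ten cm high.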

johnsongrass = assay: Test F preemergence test; format: in vivo, Sorghum halepense; conditions: scale 0 to 100
How it was run: as §2

green foxtail = assay: Test F preemergence test; format: in vivo, Setaria viridis; conditions: scale 0 to 100
How it was run: as §2

Surinam grass = assay: Test F preemergence test; format: in vivo, Brachiaria decumbens; conditions: scale 0 to 100
How it was run: as §2

goosegrass = assay: Test F preemergence test; format: in vivo, Eleusine indica; conditions: scale 0 to 100
How it was run: as §2

southern sandbur = assay: Test F preemergence test; format: in vivo, Cenchrus echinatus; conditions: scale 0 to 100
How it was run: as §2

[1] = 31 g ai/ha, Preemergence, scale 0 to 100
[2] = 62 g ai/ha, preemergence, scale 0 (no effect) to 100 (complete control)
[3] = preemergence, 125 g ai/ha, scale 0 (no effect) to 100 (complete control)

## Cn1nc(C(F)(F)F)c(C[S+]([O-])c2cccc[n+]2[O-])c1Cl (stereo not shown) [Compound 8]
Catchweed bedstraw; [1]
  Galium plant response rating: 0
Catchweed bedstraw; [2]
  Galium plant response rating: 100
Catchweed bedstraw; [3]
  Galium plant response rating: 100
Field bindweed; 62 g ai/ha, Preemergence
  Field Bindweed plant response rating: 15
Field bindweed; 125 g ai/ha, preemergence
  Field Bindweed plant response rating: 70
Field bindweed; Preemergence, 16 g ai/ha
  Plant response rating, Field Bindweed: 0
Field bindweed; Preemergence, 31 g ai/ha
  Plant response rating, Field Bindweed: 0
Downy brome; [1]
  Bromegrass, Downy plant response rating: 0
Downy brome; [2]
  Bromegrass, Downy plant response rating: 0
Downy brome; Preemergence, 250 g ai/ha
  Plant response rating (0 to 100), Bromegrass, Downy: 85
Downy brome; [3]
  Bromegrass, Downy plant response rating: 80
Common ragweed; 62 g ai/ha, Preemergence
  Ragweed plant response rating: 35
Common ragweed; 125 g ai/ha, preemergence
  Ragweed plant response rating: 80
Common ragweed; Preemergence, 16 g ai/ha
  Plant response rating, Ragweed: 0
Common ragweed; Preemergence, 31 g ai/ha
  Plant response rating, Ragweed: 35
itchgrass; 62 g ai/ha, Preemergence
  Itchgrass plant response rating: 80
itchgrass; 125 g ai/ha, preemergence
  Itchgrass plant response rating: 95
itchgrass; Preemergence, 16 g ai/ha
  Plant response rating, Itchgrass: 0
itchgrass; Preemergence, 31 g ai/ha
  Plant response rating, Itchgrass: 15
Large crabgrass; 62 g ai/ha, Preemergence
  Crabgrass, Large plant response rating: 90
Large crabgrass; 125 g ai/ha, preemergence
  Crabgrass, Large plant response rating: 98
Large crabgrass; Preemergence, 16 g ai/ha
  Plant response rating, Crabgrass, Large: 0
Large crabgrass; Preemergence, 31 g ai/ha
  Plant response rating, Crabgrass, Large: 65
Italian ryegrass; 62 g ai/ha, Preemergence
  Ryegrass, Italian plant response rating: 75
Italian ryegrass; 125 g ai/ha, preemergence
  Ryegrass, Italian plant response rating: 100
Italian ryegrass; Preemergence, 16 g ai/ha
  Plant response rating, Ryegrass, Italian: 0
Italian ryegrass; Preemergence, 31 g ai/ha
  Plant response rating, Ryegrass, Italian: 40
crabgrass; Postemergence, 125 g ai/ha, 0 is no effect, 100 is complete control
  Crabgrass, Large plant response rating: 80
crabgrass; Postemergence, 500 g ai/ha, 0 is no effect, 100 is complete control
  Crabgrass, Large plant response rating: 90
crabgrass; Preemergence, 125 g ai/ha, 0 no effect, 100 complete control
  Crabgrass, Large plant response rating: 90
crabgrass; Preemergence, 500 g ai/ha, 0 to 100 scale where 0 is no effect and 100 is complete control
  Plant response rating, Crabgrass, Large: 100
johnsongrass; 62 g ai/ha, Preemergence
  Johnsongrass plant response rating: 95
johnsongrass; 125 g ai/ha, preemergence
  Johnsongrass plant response rating: 95
johnsongrass; Preemergence, 16 g ai/ha
  Plant response rating, Johnsongrass: 0
johnsongrass; Preemergence, 31 g ai/ha
  Plant response rating, Johnsongrass: 75
Green foxtail; 62 g ai/ha, Preemergence
  Foxtail, Green plant response rating: 80
Green foxtail; 125 g ai/ha, preemergence
  Foxtail, Green plant response rating: 90
Green foxtail; Preemergence, 16 g ai/ha
  Plant response rating, Foxtail, Green: 0
Green foxtail; Preemergence, 31 g ai/ha
  Plant response rating, Foxtail, Green: 70
Surinam grass; 62 g ai/ha, Preemergence
  Surinam Grass plant response rating: 90
Surinam grass; 125 g ai/ha, preemergence
  Surinam Grass plant response rating: 100
Surinam grass; Preemergence, 31 g ai/ha
  Plant response rating, Surinam Grass: 70
goosegrass; 62 g ai/ha, Preemergence
  Goosegrass plant response rating: 80
goosegrass; 125 g ai/ha, preemergence
  Goosegrass plant response rating: 100
goosegrass; Preemergence, 16 g ai/ha
  Plant response rating, Goosegrass: 0
goosegrass; Preemergence, 31 g ai/ha
  Plant response rating, Goosegrass: 70
Southern sandbur; 62 g ai/ha, Preemergence
  Sandbur plant response rating: 80
Southern sandbur; 125 g ai/ha, preemergence
  Sandbur plant response rating: 100
Southern sandbur; Preemergence, 31 g ai/ha
  Plant response rating, Sandbur: 10
